The results in this text go back to patent US20100299770A1, “TARGETED CELL DEATH” (priority 2007, published 2010).

In assay [1] the test system is primary oligodendrocyte cultures. Description: CID-induced cell death in iCP9 virus-transduced primary oligodendrocyte cultures. The assay is classed as cell-based, rat. The conditions noted are these: CID 10 nM; cultures stably expressing iCP9; fluorescent microscope and Methylene Blue viability staining. The method, then:
293T cells were transfected with the pΔmbpICP9/mEGFP vector along with plasmids encoding the gag-pol and RD114 envelope protein using lipofectamine (Invitrogen, Carlsbad, Calif.). Forty-eight hours after transfection viral supernatant were harvested and either directly applied to target cells or snap frozen and stored at -80° C.
To induce timely cell death. Collected virus was used to transduce primary oligodendrocyte cultures that have been established. Cells were cultured and evaluated using fluorescent microscopy for the expression of GFP. The extent of GFP positive cells correlated with the viral infection efficacy. Cell protein isolation was conducted and protein isolates were subjected to Western blot transfer to detect stable expression of the iCP9 protein. The resultant membrane was probed with anti-caspase 9 antibody (R&D Systems Inc. #AF8301). Once the stable expression of iCP9 was confirmed at the protein level wan western mot techniques, the CID was applied to these cells in culture at a 10 nM concentration. […] Cell death was detected by viewing cultures under the fluorescent microscope and by using Methylene Blue (Sigma) viability staining of cells in culture after exposure to the CID. All experiments were run in parallel using the astrocyte-derived U87 cell line as a negative control.

Assay [2] deals with CNS of adult rats. Description: Animal model of CNS demyelination, virus applied to CNS of adult rats, CID intraperitoneal. The format is in vivo, rat. To be noted: CID via intraperitoneal injection at various times after virus. The protocol: The virus described above, pΔmbpICP9/mEGFP, which contains the inducible caspase 9 sequence was applied to the CNS of adult rats to create an in vivo model of CNS demyelination. Administration of the viral vector allowed effective transfer of genetic information in a variable area of parenchyma based on the rate of administration (convective distribution) and viral titer. […] First, adult Fischer rats were anaesthetized by intraperitoneal injection o f ketamine hydrocholoride (80 mg/kg) and xylazine ([…]) and placed in a sereotactic frame. A midline scalp incision is made. Access to brain parenchyma was accomplished by plaement of a right-sided burr hole through the skull, at various predetermined coordinates depending on the desired location of the lesion. […] The volume of viral vector (e.g., lentivirus) delivered depends upon the infection efficacy as determined herein and the target area size. After injection, the needle is left in place for five minutes and then slowly withdrawn over the next four minutes. The skin was closed with sutures.
For virus administration to the spinal cord an incision was made in the thoracic spine followed by a lamenectomy to expose the spinal cord. A No. 32S-gauge needle was passed into the posterior column at predetermined coordinates.

Take `CC[C@H](C(=O)N1CCCC[C@H]1C(=O)O[C@H](CCc1ccc(OC)c(OC)c1)c1cccc(OCC(=O)NCC(CNC(=O)COc2cccc([C@@H](CCc3ccc(OC)c(OC)c3)OC(=O)[C@@H]3CCCCN3C(=O)[C@@H](CC)c3cc(OC)c(OC)c(OC)c3)c2)CN(C)C)c1)c1cc(OC)c(OC)c(OC)c1` [CID, AP20187]: the “cell death of infected cells after CID” value in assay [1] is listed as “induced the cellular death of infected cells”. Moreover, the “effect of CID on the infected region of the CNS” value in assay [2] was “apoptosis of the infected region of the CNS”.
